From patent EP0195841A1, “Quinolinecarboxylic acid derivatives and process for their preparation” (KYORIN PHARMACEUTICAL CO., LTD., priority 1985, dated 1986)
Converted amounts (≈) assume the structure as drawn. Where two headings read alike, the source gives them in different places.

Key:
Assay in all cases: Antibacterial spectra, MIC by standard method of Japan Society of Chemotherapy
Format in all cases: cell-based
[1] = test system: Bacillus subtilis PCI 219; conditions: 10^6 cells/ml; for ratio of activity per that of Ciprofloxacin (bracketed number): Gram +; for MIC: PCI219, Gram +, read-out: Minimum Inhibitory Concentration
[2] = test system: Staphylococcus aureus 209 P; conditions: Gram +, 10^6 cells/ml; for MIC: read-out: Minimum Inhibitory Concentration
[3] = test system: S. aureus IID 670 (Terajima); conditions: 10^6 cells/ml; for MIC: Staphylococcus aureus, IID670, Gram +, read-out: Minimum Inhibitory Concentration
S. epidermidis IID 866 = conditions: 10^6 cells/ml; for ratio of activity per that of Ciprofloxacin (bracketed number): Gram +; for MIC: Staphylococcus epidermidis, IID866, Gram +, read-out: Minimum Inhibitory Concentration
[4] = test system: Streptococcus pyogenes IID 692; conditions: 10^6 cells/ml; for ratio of activity per that of Ciprofloxacin (bracketed number): Gram +; for MIC: IID692, Gram +, read-out: Minimum Inhibitory Concentration
[5] = test system: S. pyogenes IID 689 (S-8); conditions: 10^6 cells/ml
S. faecalis IID 682 = conditions: 10^6 cells/ml; for MIC: Enterococcus faecalis, IID682, Gram +, read-out: Minimum Inhibitory Concentration; for ratio of activity per that of Ciprofloxacin (bracketed number): Gram +
S. pneumoniae 2054 = conditions: Gram +, 10^6 cells/ml
E. coli NIHJ JC-2 = conditions: E. coli NIHJ JC-2, Gram −, 10^6 cells/ml
E. coli ATCC 10536 = conditions: 10^6 cells/ml; for MIC: Escherichia coli, ATCC10536, Gram −, read-out: Minimum Inhibitory Concentration; for ratio of activity per that of Ciprofloxacin (bracketed number): Gram −
[6] = test system: Proteus vulgaris IFO 3167
P. mirabilis IID 994 = conditions: 10^6 cells/ml; for ratio of activity per that of Ciprofloxacin (bracketed number): Gram −; for MIC: Proteus mirabilis, IID994, Gram −, read-out: Minimum Inhibitory Concentration
P. morganii IID 602 = conditions: 10^6 cells/ml; for ratio of activity per that of Ciprofloxacin (bracketed number): Gram −; for MIC: Morganella morganii, IID602, Gram −, read-out: Minimum Inhibitory Concentration
[7] = test system: Klebsiella pneumoniae KY 6445; conditions: 10^6 cells/ml; for ratio of activity per that of Ciprofloxacin (bracketed number): Gram −
[8] = test system: Enterobacter cloacae IID 977; conditions: 10^6 cells/ml; for ratio of activity per that of Ciprofloxacin (bracketed number): Gram −; for MIC: IID977, Gram −, read-out: Minimum Inhibitory Concentration
[9] = test system: Citrobacter freundii IID 976; conditions: 10^6 cells/ml; for ratio of activity per that of Ciprofloxacin (bracketed number): Gram −; for MIC: IID976, Gram −, read-out: Minimum Inhibitory Concentration
[10] = test system: Serratia marcescens IID 618; conditions: 10^6 cells/ml; for MIC: IID618, Gram −, read-out: Minimum Inhibitory Concentration
Shigella sonnei IID 969 = conditions: 10^6 cells/ml; for ratio of activity per that of Ciprofloxacin (bracketed number): Gram −
Experimental: Experiment 1. Antibacterial spectra
Antibacterial activity was determined with the standard method recommended by Japan Society of Chemotherapy.

[11] = test system: Salmonella enteritidis IID 604; conditions: Gram −, 10^6 cells/ml; for MIC: Salmonella enterica, read-out: Minimum Inhibitory Concentration
[12] = test system: Pseudomonas aeruginosa V-1; conditions: 10^6 cells/ml; for ratio of activity per that of Ciprofloxacin (bracketed number): Gram −; for MIC: V1, Gram −, read-out: Minimum Inhibitory Concentration
[13] = test system: Pseudomonas aeruginosa IFO 12689; conditions: 10^6 cells/ml; for ratio of activity per that of Ciprofloxacin (bracketed number): Gram −; for MIC: IFO12689, Gram −, read-out: Minimum Inhibitory Concentration
[14] = test system: Yersinia enterocolitica IID 981; conditions: 10^6 cells/ml; for ratio of activity per that of Ciprofloxacin (bracketed number): Gram −; for MIC: IID981, Gram −, read-out: Minimum Inhibitory Concentration
[15] = test system: Acinetobacter anitratus IID 876; conditions: 10^6 cells/ml; for MIC: Acinetobacter calcoaceticus, IID876, Gram −, read-out: Minimum Inhibitory Concentration
[16] = test system: Alcaligenes faecalis 0104002; conditions: Gram −, 10^6 cells/ml; for MIC: read-out: Minimum Inhibitory Concentration
[17] = test system: Bacteroides fragilis GM 7000; conditions: 10^6 cells/ml; for MIC: GM7000, Gram −, read-out: Minimum Inhibitory Concentration; for ratio of activity per that of Ciprofloxacin (bracketed number): Gram −
[18] = test system: Bacteroides fragilis 0558; conditions: Gram −, 10^6 cells/ml; for MIC: read-out: Minimum Inhibitory Concentration
[19] = test system: Bacteroides fragilis 25285; conditions: Gram −, 10^6 cells/ml; for MIC: read-out: Minimum Inhibitory Concentration
[20] = Proteus vulgaris IFO 3167, Gram −, 10^6 cells/ml

Structure (SMILES): CN1CCN(c2c(F)cc3c(=O)c(C(=O)O)cn(C4CC4)c3c2Cl)CC1 [Example 27, 8-Chloro-1-cyclopropyl-6-fluoro-1,4-dihydro-7-(4-methyl-l-piperazinyl)4-oxoquinoline-3-carboxylic acid]
- ratio of activity per that of Ciprofloxacin (bracketed number) [1]: 4
- MIC [1]: 0.0125 µg/mL (≈ 0.0329 µM)
- ratio of activity per that of Ciprofloxacin (bracketed number) [2]: 4
- MIC [2]: 0.1 µg/mL (≈ 0.263 µM)
- MIC [3]: 0.1 µg/mL (≈ 0.263 µM)
- ratio of activity per that of Ciprofloxacin (bracketed number) (S. epidermidis IID 866): 4
- MIC (S. epidermidis IID 866): 0.1 µg/mL (≈ 0.263 µM)
- ratio of activity per that of Ciprofloxacin (bracketed number) [4]: 4
- MIC [4]: 0.2 µg/mL (≈ 0.527 µM)
- MIC ([5]; Streptococcus pyogenes, IID689, Gram +, read-out: Minimum Inhibitory Concentration): 0.2 µg/mL (≈ 0.527 µM)
- MIC (S. faecalis IID 682): 0.39 µg/mL (≈ 1.03 µM)
- ratio of activity per that of Ciprofloxacin (bracketed number) (S. faecalis IID 682): 2
- MIC (S. pneumoniae 2054; Streptococcus pneumoniae, read-out: Minimum Inhibitory Concentration): 0.39 µg/mL (≈ 1.03 µM)
- ratio of activity per that of Ciprofloxacin (bracketed number) (E. coli NIHJ JC-2): 1
- MIC (E. coli NIHJ JC-2; Escherichia coli, NIHJJC2, read-out: Minimum Inhibitory Concentration): ≤ 0.006 µg/mL
- MIC (E. coli ATCC 10536): 0.0125 µg/mL (≈ 0.0329 µM)
- ratio of activity per that of Ciprofloxacin (bracketed number) (E. coli ATCC 10536): 1
- ratio of activity per that of Ciprofloxacin (bracketed number) [6, 20]: 0.5
- MIC ([6]; Proteus vulgaris, IFO3167, read-out: Minimum Inhibitory Concentration): 0.0125 µg/mL (≈ 0.0329 µM)
- ratio of activity per that of Ciprofloxacin (bracketed number) (P. mirabilis IID 994): 0.5
- MIC (P. mirabilis IID 994): 0.025 µg/mL (≈ 0.0658 µM)
- ratio of activity per that of Ciprofloxacin (bracketed number) (P. morganii IID 602): 1
- MIC (P. morganii IID 602): 0.05 µg/mL (≈ 0.132 µM)
- ratio of activity per that of Ciprofloxacin (bracketed number) [7]: 0.5
- MIC ([7]; KY6445, Gram −, read-out: Minimum Inhibitory Concentration): 0.025 µg/mL (≈ 0.0658 µM)
- ratio of activity per that of Ciprofloxacin (bracketed number) [8]: 1
- MIC [8]: 0.05 µg/mL (≈ 0.132 µM)
- ratio of activity per that of Ciprofloxacin (bracketed number) [9]: 0.25
- MIC [9]: 0.025 µg/mL (≈ 0.0658 µM)
- MIC [10]: 0.05 µg/mL (≈ 0.132 µM)
- ratio of activity per that of Ciprofloxacin (bracketed number) (Shigella sonnei IID 969): 0.5
- MIC (Shigella sonnei IID 969; IID969, Gram −, read-out: Minimum Inhibitory Concentration): 0.0125 µg/mL (≈ 0.0329 µM)
- ratio of activity per that of Ciprofloxacin (bracketed number) [11]: 0.5
- MIC [11]: 0.05 µg/mL (≈ 0.132 µM)
- ratio of activity per that of Ciprofloxacin (bracketed number) [12]: 1
- MIC [12]: 0.2 µg/mL (≈ 0.527 µM)
- ratio of activity per that of Ciprofloxacin (bracketed number) [13]: 0.25
- MIC [13]: 1.56 µg/mL (≈ 4.11 µM)
- ratio of activity per that of Ciprofloxacin (bracketed number) [14]: 1
- MIC [14]: 0.05 µg/mL (≈ 0.132 µM)
- MIC [15]: 0.025 µg/mL (≈ 0.0658 µM)
- ratio of activity per that of Ciprofloxacin (bracketed number) [16]: 1
- MIC [16]: 0.39 µg/mL (≈ 1.03 µM)
- MIC [17]: 0.2 µg/mL (≈ 0.527 µM)
- ratio of activity per that of Ciprofloxacin (bracketed number) [17]: 16
- ratio of activity per that of Ciprofloxacin (bracketed number) [18]: 32
- MIC [18]: 0.1 µg/mL (≈ 0.263 µM)
- ratio of activity per that of Ciprofloxacin (bracketed number) [19]: 32
- MIC [19]: 0.1 µg/mL (≈ 0.263 µM)

Structure (SMILES): O=C(O)c1cn(C2CC2)c2c(F)c(N3CCNCC3)c(F)cc2c1=O [Reference- 1, 1-Cyclopropyl-6,8-difluoro-1,4-dihydro-4-oxo-7-(1-piperazinyl)quinoline-3-carboxylic acid, reference compound]
- ratio of activity per that of Ciprofloxacin (bracketed number) [1]: 2
- MIC [1]: 0.025 µg/mL (≈ 0.0716 µM)
- ratio of activity per that of Ciprofloxacin (bracketed number) [2]: 2
- MIC [2]: 0.2 µg/mL (≈ 0.573 µM)
- ratio of activity per that of Ciprofloxacin (bracketed number) ([3]; Gram +): 2
- MIC [3]: 0.2 µg/mL (≈ 0.573 µM)
- ratio of activity per that of Ciprofloxacin (bracketed number) (S. epidermidis IID 866): 2
- MIC (S. epidermidis IID 866): 0.2 µg/mL (≈ 0.573 µM)
- ratio of activity per that of Ciprofloxacin (bracketed number) [4]: 1
- MIC [4]: 0.78 µg/mL (≈ 2.23 µM)
- ratio of activity per that of Ciprofloxacin (bracketed number) ([5]; Gram +): 1
- MIC (S. faecalis IID 682): 0.78 µg/mL (≈ 2.23 µM)
- ratio of activity per that of Ciprofloxacin (bracketed number) (S. faecalis IID 682): 1
- ratio of activity per that of Ciprofloxacin (bracketed number) (S. pneumoniae 2054): 2
- ratio of activity per that of Ciprofloxacin (bracketed number) (E. coli NIHJ JC-2): 1
- MIC (E. coli ATCC 10536): 0.0125 µg/mL (≈ 0.0358 µM)
- ratio of activity per that of Ciprofloxacin (bracketed number) (E. coli ATCC 10536): 1
- MIC ([6]; IFO3167, Proteus vulgaris IFO 3167, Gram −, 10^6 cells/ml, read-out: Minimum Inhibitory Concentration): ≤ 0.006 µg/mL
- ratio of activity per that of Ciprofloxacin (bracketed number) [6, 20]: 1
- ratio of activity per that of Ciprofloxacin (bracketed number) (P. mirabilis IID 994): 2
- MIC (P. mirabilis IID 994): ≤ 0.006 µg/mL
- ratio of activity per that of Ciprofloxacin (bracketed number) (P. morganii IID 602): 2
- MIC (P. morganii IID 602): 0.025 µg/mL (≈ 0.0716 µM)
- ratio of activity per that of Ciprofloxacin (bracketed number) [7]: 1
- ratio of activity per that of Ciprofloxacin (bracketed number) [8]: 2
- MIC [8]: 0.025 µg/mL (≈ 0.0716 µM)
- ratio of activity per that of Ciprofloxacin (bracketed number) [9]: 0.5
- MIC [9]: 0.0125 µg/mL (≈ 0.0358 µM)
- ratio of activity per that of Ciprofloxacin (bracketed number) ([10]; Gram −): 4
- MIC [10]: 0.1 µg/mL (≈ 0.286 µM)
- ratio of activity per that of Ciprofloxacin (bracketed number) (Shigella sonnei IID 969): 1
- MIC [11]: 0.0125 µg/mL (≈ 0.0358 µM)
- ratio of activity per that of Ciprofloxacin (bracketed number) [12]: 1
- MIC [12]: 0.2 µg/mL (≈ 0.573 µM)
- ratio of activity per that of Ciprofloxacin (bracketed number) [13]: 1
- MIC [13]: 0.39 µg/mL (≈ 1.12 µM)
- ratio of activity per that of Ciprofloxacin (bracketed number) [14]: 2
- MIC [14]: 0.025 µg/mL (≈ 0.0716 µM)
- MIC [15]: 0.0125 µg/mL (≈ 0.0358 µM)
- ratio of activity per that of Ciprofloxacin (bracketed number) ([15]; Gram −): 2
- ratio of activity per that of Ciprofloxacin (bracketed number) [16]: 2
- MIC [16]: 0.02 µg/mL (≈ 0.0573 µM)
- MIC [17]: 1.56 µg/mL (≈ 4.47 µM)
- ratio of activity per that of Ciprofloxacin (bracketed number) [17]: 2
- ratio of activity per that of Ciprofloxacin (bracketed number) [18]: 4
- MIC [18]: 0.78 µg/mL (≈ 2.23 µM)
- MIC [19]: 0.78 µg/mL (≈ 2.23 µM)
